Source: patent US8231887B2, “Pesticidal compositions” (BASF Corporation, priority 2008, dated 2012)
“And” between values parts separate entries of the source, which are not always exact repeats. Identical values can stand only once.

Key:
cockroaches [1] = assay: Topical toxicity test of alcohols and/or PD23 mineral oil, dead at 24 h (Example 10); format: in vivo, Blattella germanica
Description: (§1) Toxicity evaluations were performed on 7-14 day old adult male and female German cockroaches (SCJ Strain, S.C. Johnson & Son, Racine, Wis.). Approximately 12 cockroaches were transferred to individual 100×20 mm polystyrene Petri dishes and anesthetized with a 15-25 second exposure to carbon dioxide. The inside edge of each Petri dish was lightly coated with mineral oil plus petroleum jelly in a 1:3 (wt/wt) ratio to minimize escape. Anesthetized cockroaches were positioned with their ventral side up, and a 1 μl drop of the diluted test composition was applied to the area between the meso- and metathoracic legs using a Rainin L-10, 10 μl capacity pipette (Rainin Instrument, LLC, Oakland, Calif.). Five replications of 12 male cockroaches were done for each test composition. Separate tests were done using female cockroaches. Results were evaluated at 24 hours following treatment. Cockroaches were scored as either alive (dorsal side up, active movement when abdomen prodded with dissecting probe) or moribund/dead (dorsal side up and no movement when abdomen prodded or ventral side up and insect unable to right itself).
The compositions comprising alcohol and/or mineral oil are described in Table 13.

cockroaches [2] = assay: Topical toxicity test of various compounds and/or PD23 mineral oil, dead at 24 h (Example 12); format: in vivo, Blattella germanica; conditions: for Proportion dead at 24 h: calculated proportion; for increase in mortality when combined with PD23 mineral oil: result in words, compared to the other compounds tested
Description: as §1

[3] = Table 14, composite data of the replicates
[4] = Table 14, composite data, calculated proportion
[5] = Table 13, per replicate of 10-16 treated cockroaches, mg per insect in the label
[6] = compound alone, 0.25 mg, one replicate group per row
[7] = Table 17, composite data, listed as nitromethane (75-52-5) (0.80 mg)

CCCCCCCCCCCCCCO [1-tetradecanol]
# dead at 24 h (cockroaches [1]; Table 13, per replicate of 10-16 treated cockroaches, mg per insect in the label, listed as 1-tetradecanol (1.00 mg)): 1 and 2 | Proportion dead at 24 h (cockroaches [1]; Table 13, per replicate, listed as 1-tetradecanol (1.00 mg)): 0.083 and 0.154 | # dead at 24 h (cockroaches [1]; [3]): 4 | Proportion dead at 24 h (cockroaches [1]; [4]): 0.108

CCC(C)=O [2-butanone]
# dead at 24 h (cockroaches [2]; Table 17, composite data): 3 | Proportion dead at 24 h (cockroaches [2]; Table 17, composite data): 0.083

CCCCOCCO [2-butoxyethanol]
Proportion dead at 24 h (cockroaches [1]; Table 13, per replicate): 0.000 | # dead at 24 h (cockroaches [1]; [5]): 0 | # dead at 24 h (cockroaches [1]; [3]): 0 | Proportion dead at 24 h (cockroaches [1]; [4]): 0.000

CCOCCO [2-ethoxyethanol]
# dead at 24 h (cockroaches [2]; Table 17, composite data): 1 | Proportion dead at 24 h (cockroaches [2]; Table 17, composite data): 0.033 | increase in mortality when combined with PD23 mineral oil (cockroaches [2]): greatest increase in mortality

CC(=O)c1ccccc1 [Acetophenone (98-86-2) (0.10 mg), Acetophenone]
# dead at 24 h (cockroaches [2]; Table 17, composite data): 0 | increase in mortality when combined with PD23 mineral oil (cockroaches [2]): greatest increase in mortality

ClC(Cl)Cl [Chloroform-anhydrous (67-66-3) (2.0 mg), Chloroform]
# dead at 24 h (cockroaches [2]; Table 17, composite data): 1 | Proportion dead at 24 h (cockroaches [2]; Table 17, composite data): 0.050

CCCCCCCCCCO [Composition 1-decanol, 1-decanol]
# dead at 24 h (cockroaches [1]; [3]): 1 | Proportion dead at 24 h (cockroaches [1]; [4]): 0.027

CCCCCCCCCCCCO [Composition 1-dodecanol, 1-dodecanol]
# dead at 24 h (cockroaches [1]; [3]): 3 | Proportion dead at 24 h (cockroaches [1]; [4]): 0.077

CCCCCCO [Composition 1-hexanol, 1-hexanol]
Proportion dead at 24 h (cockroaches [1]; Table 13, per replicate): 0.083 | # dead at 24 h (cockroaches [1]; [5]): 1 | # dead at 24 h (cockroaches [1]; [3]): 3 | Proportion dead at 24 h (cockroaches [1]; [4]): 0.083

CCCCCCCCCO [Composition 1-nonanol, 1-nonanol]
# dead at 24 h (cockroaches [1]; [3]): 1 | Proportion dead at 24 h (cockroaches [1]; [4]): 0.024

CCCCCCCCO [Composition 1-octanol, 1-octanol]
# dead at 24 h (cockroaches [1]; [3]): 2 | Proportion dead at 24 h (cockroaches [1]; [4]): 0.054

CCCCCCCCCCCO [Composition 1-undecanol, 1-undecanol]
# dead at 24 h (cockroaches [1]; [3]): 4 | Proportion dead at 24 h (cockroaches [1]; [4]): 0.105

OCCOCCO [Di(ethylene) glycol (111-46-6) (0.80 mg), Di(ethylene) glycol]
# dead at 24 h (cockroaches [2]; Table 17, composite data): 6

CC(=O)CC(C)(C)O [Diacetone alcohol]
# dead at 24 h (cockroaches [1]; [3]): 1 | Proportion dead at 24 h (cockroaches [1]; [4]): 0.025

ClCCl [Dichloromethane]
pest or weed control at 1.5 mg (cockroaches [2]; Blattella germanica, topical, 24 h, read-out: Proportion dead at 24 hr): 0% | Proportion dead at 24 h (cockroaches [2]; Table 17, composite data): 0.000 | # dead at 24 h (cockroaches [2]; compound alone, 1.50 mg): 0

COCOC [Dimethoxymethane]
pest or weed control at 2 mg (cockroaches [2]; Blattella germanica, topical, 24 h, compound alone, 2.00 mg, read-out: Proportion dead at 24 hr): 0% | Proportion dead at 24 h (cockroaches [2]; Table 17, composite data): 0.000 | # dead at 24 h (cockroaches [2]; compound alone, 2.00 mg): 0 | Proportion dead at 24 hr (cockroaches [2]; compound alone, 2.00 mg): 0.000

CCO [Ethanol]
# dead at 24 h (cockroaches [1]; [3]): 1 | Proportion dead at 24 h (cockroaches [1]; [4]): 0.027

CCCCCC [Hexanes (110-54-3) (0.80 mg), Hexanes]
# dead at 24 h (cockroaches [2]; Table 17, composite data): 1 | Proportion dead at 24 h (cockroaches [2]; Table 17, composite data): 0.100

CC(=O)OC(C)C [Isopropyl acetate (108-21-4) (1.0 mg), Isopropyl acetate]
# dead at 24 h (cockroaches [2]; Table 17, composite data): 3 | Proportion dead at 24 h (cockroaches [2]; Table 17, composite data): 0.150

CC(=O)OC(C)C [Isopropyl acetate]
# dead at 24 h (cockroaches [2]; compound alone, 1.00 mg): 1 and 2 | Proportion dead at 24 hr (cockroaches [2]; compound alone, 1.00 mg): 0.200

CC(C)O [Isopropyl alcohol]
Proportion dead at 24 h (cockroaches [1]; Table 13, per replicate): 0.000 | # dead at 24 h (cockroaches [1]; [5]): 0 | # dead at 24 h (cockroaches [1]; [3]): 0 | Proportion dead at 24 h (cockroaches [1]; [4]): 0.000

CC(Cl)(Cl)Cl [Methyl chloroform (71-55-6) (2.00 mg), Methyl chloroform]
# dead at 24 h (cockroaches [2]; Table 17, composite data): 2 | Proportion dead at 24 h (cockroaches [2]; Table 17, composite data): 0.095

CC(Cl)(Cl)Cl [Methyl chloroform]
# dead at 24 h (cockroaches [2]; compound alone, 2.00 mg): 1 | Proportion dead at 24 hr (cockroaches [2]; compound alone, 2.00 mg): 0.091 and 0.100

CC(=O)CC(C)C [Methyl isobutyl ketone]
# dead at 24 h (cockroaches [2]; Table 17, composite data): 1 | Proportion dead at 24 h (cockroaches [2]; Table 17, composite data): 0.048

COC(C)(C)C [Methyl t-butyl ether]
# dead at 24 h (cockroaches [2]; Table 17, composite data): 5 | Proportion dead at 24 h (cockroaches [2]; Table 17, composite data): 0.227 | # dead at 24 h (cockroaches [2]; compound alone, 2.00 mg): 2 and 3 | Proportion dead at 24 hr (cockroaches [2]; compound alone, 2.00 mg): 0.300

c1ccncc1 [Pyridine (110-86-1) (0.10 mg), Pyridine]
# dead at 24 h (cockroaches [2]; Table 17, composite data): 1 | Proportion dead at 24 h (cockroaches [2]; Table 17, composite data): 0.032 | increase in mortality when combined with PD23 mineral oil (cockroaches [2]): greatest increase in mortality

C1CCOC1 [Tetrahydrofuran (109-99-9) (0.80 mg), Tetrahydrofuran]
# dead at 24 h (cockroaches [2]; Table 17, composite data): 3 | Proportion dead at 24 h (cockroaches [2]; Table 17, composite data): 0.300

C1CCOC1 [Tetrahydrofuran]
# dead at 24 h (cockroaches [2]; compound alone, 0.80 mg): 3 | Proportion dead at 24 hr (cockroaches [2]; compound alone, 0.80 mg): 0.300

Cc1ccccc1 [Toluene (108-88-3) (0.90 mg), Toluene]
# dead at 24 h (cockroaches [2]; Table 17, composite data): 0 | Proportion dead at 24 h (cockroaches [2]; Table 17, composite data): 0.000

Cc1ccccc1 [Toluene]
# dead at 24 h (cockroaches [2]; compound alone, 0.90 mg): 0 | Proportion dead at 24 hr (cockroaches [2]; compound alone, 0.90 mg): 0.000

CC(=O)OCC(COC(C)=O)OC(C)=O [Triacetin (102-76-1) (2.0 mg), Triacetin]
# dead at 24 h (cockroaches [2]; Table 17, composite data): 1 | Proportion dead at 24 h (cockroaches [2]; Table 17, composite data): 0.033 | increase in mortality when combined with PD23 mineral oil (cockroaches [2]): greatest increase in mortality

CCOCC [diethyl ether (60-29-7) (2.0 mg), diethyl ether]
# dead at 24 h (cockroaches [2]; Table 17, composite data): 0 | Proportion dead at 24 h (cockroaches [2]; Table 17, composite data): 0.000

CCOCC [diethyl ether]
# dead at 24 h (cockroaches [2]; compound alone, 2.00 mg): 0 | Proportion dead at 24 hr (cockroaches [2]; compound alone, 2.00 mg): 0.000

O=C1CCCO1 [gamma butyrolactone (96-48-0) (0.25 mg), gamma butyrolactone]
# dead at 24 h (cockroaches [2]; Table 17, composite data): 11 | Proportion dead at 24 h (cockroaches [2]; Table 17, composite data): 0.407 | increase in mortality when combined with PD23 mineral oil (cockroaches [2]): greatest increase in mortality

O=C1CCCO1 [gamma butyrolactone]
# dead at 24 h (cockroaches [2]; [6]): 3 and 5 | Proportion dead at 24 hr (cockroaches [2]; [6]): 0.300 and 0.500

CN1CCCC1=O [n-methyl pyrrolidone]
Proportion dead at 24 h (cockroaches [2]; Table 17, composite data): 0.100 | Proportion dead at 24 h (cockroaches [2]; Table 17, composite data, listed as n-methyl pyrrolidone (872-50-4) (0.10 mg)): 0.500 | # dead at 24 h (cockroaches [2]; compound alone, 0.05 mg): 1 | # dead at 24 h (cockroaches [2]; compound alone, 0.10 mg): 5

C[N+](=O)[O-] [nitromethane (75-52-5) (0.70 mg), nitromethane]
# dead at 24 h (cockroaches [2]; Table 17, composite data): 0 | Proportion dead at 24 h (cockroaches [2]; [7]): 0.179 | # dead at 24 h (cockroaches [2]; [7]): 5 | increase in mortality when combined with PD23 mineral oil (cockroaches [2]): greatest increase in mortality

Diisopropyl biphenyl
# dead at 24 h (cockroaches [2]; Table 17, composite data): 0 | Proportion dead at 24 h (cockroaches [2]; Table 17, composite data): 0.000

Hexanes
# dead at 24 h (cockroaches [2]; compound alone, 0.80 mg): 1 | Proportion dead at 24 hr (cockroaches [2]; compound alone, 0.80 mg): 0.100
